Measured values: patent US8940911B2, “Squarylated lactones inhibitors for bacterial biofilm formation” (Syracuse University, priority 2012, dated 2015)

Key:
E. coli RP437 [1] = test: Static biofilm inhibition assay (crystal violet, 96-well plate); type: cell-based, Escherichia coli
Excerpt: A primary objective was to test the ability of SHLs to inhibit biofilm formation against E. coli RP437. […] Viable controls were required that would allow us to measure and compare the activity of SHLs against known biofilm inhibitors and naturally occurring AI-1 signal molecules. […] The activity of this class of molecule is presumably similar or even marginally higher than that of brominated furanone (BF8 48) (56%).
For the present invention, the E. coli RP437 biofilms were allowed to develop in a 96-well plate in the absence or presence of SHLs. After 24 hours, the planktonic bacteria and remaining media were removed and the crystal violet was introduced in the wells. The bacterial biofilm being formed at the air/liquid interface on the inside wall of the well is stained readily by crystal violet. After removing the excess crystal violet and repeatedly washing the wells with water, followed by ethanol solubilization of the dye, allows quantification of the amount of biofilm by spectrophotometry (OD600). […] We believe that the observed biofilm inhibition activity cannot be directly attributed to any predominant structural feature inherent in the SHLs. Rather, the small deviations in the structures of the SHLs and their effect on biofilm formation could be a result of the nature of non-covalent forces that arise during SHLs presumed binding within the receptor active site.
An overnight culture of E. coli RP437 grown in LB media (OD600 of 1.0) containing streptomycin (10 μg/mL) was subsequently sub-cultured to an OD600 of 0.04 (1:100 dilution with LB media). To each well in the solvent resistant polypropylene or polystyrene-based 96-well microtiter plates were added 200 μL of the sub-cultured bacteria respectively. To each of the wells containing the bacterial cultures varying concentrations of the synthetic molecules was added and the contents in each well were gently mixed. Control wells comprised of untreated bacterial culture (four replicates) and the LB media (four replicates). The microtiter plates were then covered and wrapped in a Saran wrap and allowed to incubate at 37° C. for 24 hours without shaking. After that time, the microbial medium in each well was discarded and the remaining biofilm that was formed during incubation was stained with 225 μL of a 0.1% crystal violet solution and allowed to incubate at room temperature for 30 minutes. After the incubation period, the crystal violet was discarded and the wells were gently washed twice with water (230-250 μL) and allowed to air dry for 15-20 minutes. For the purpose of solubilizing the remaining crystal violet that had stained the biofilm present in the interior of the 96-well plates, a 250 μL solution of 95% ethanol was used. After the addition of 95% ethanol, the contents of each well were mixed thoroughly and allowed to sit for 15-20 minutes. Finally, the biofilm formed was quantified by transferring 100 μL of the ethanol solution into a fresh polystyrene microtiter dish that was subsequently read by an absorbance plate reader (A600). After elimination of background absorbance, the percentage inhibition was calculated by dividing the amount of absorbed crystal violet in wells that contained the synthetic compound by the amount of absorbed crystal violet in wells that contained bacteria only (control). Biofilm assays for each synthetic compound were repeated two to three times and each concentration considered for inhibition studies were tested over four replicates.

E. coli RP437 [2] = test: Growth studies (OD600) of planktonic E. coli; type: cell-based, Escherichia coli; details: for toxicity / growth inhibition of E. coli (in words): OD600 over 24 h, 1-300 μM as stated in the sentence
Method: The toxicity of the SHLs and BF8 at a range of concentrations (1, 10, 25, 50, 100, 200 and 300 μM) was evaluated against E. coli RP437 to determine whether these small molecules elicit their inhibition effect through a toxic mechanism. […] The effect induced by SHLs at 200 μM, the inhibitory concentration at which maximum biofilm inhibition occurs was interesting to observe.
The toxicity profile of BF8 48 would in turn allow a comparison to the library of SHLs. Parallel growth studies using BF8 48 and vinyl-SHL 3 treated and untreated control cultures in 96-well plates were performed. Inhibitor concentrations used during growth studies ranged from […]-300 μM.
An overnight culture of E. coli RP437 grown in LB media (OD600 of 1.0) containing streptomycin (10 μg/mL) was subsequently sub-cultured to an OD600 of 0.04 (1:100 dilution with LB media). To each well in the solvent resistant polypropylene or polystyrene-based 96-well microtiter plates were added varying concentrations of the synthetic molecules respectively (1, 10, 25, 50, 100, 200 and 300 μM). Further, to each of the wells containing the known concentrations of synthetic molecules was added 200 μL of the sub-cultured bacteria and the contents in each well were gently mixed. Control wells comprised of untreated bacterial culture (four replicates) and the LB media (four replicates). The microtiter plates were then covered and allowed to incubate at 37° C. for 24 hours with shaking at 200 rpm. The OD600 values in each well was measured at 0, 2, 4, 6, 8, 12, 24 h after inoculation using Biotek ELx800 absorbance plate reader using Gen5™ data analysis software. For each synthetic compound, the growth experiments were repeated twice and each of the concentrations was tested over four replicates.

[3] = E. coli RP437, 200 μM, 24 h, crystal violet

Row | SMILES | biofilm inhibition (in words) (E. coli RP437 [1]; [3]) | biofilm inhibition values used in the ratio 26/57×100 (E. coli RP437 [1]; E. coli RP437, unit not given) | E. coli growth relative to untreated sample (E. coli RP437 [2]; 200 μM, at 4 h, OD600) [%] | toxicity / growth inhibition of E. coli (in words) (E. coli RP437 [2]) | toxicity / growth inhibition of E. coli (in words) (E. coli RP437 [2]; listed as Vinyl-SHL 3) | inhibition of biofilm formation (E. coli RP437 [1]; [3]) [%]
1 | C=Cc1c(NC2CCOC2=O)c(=O)c1=O (stereo not drawn) [vinyl-SHL 3] | greatest inhibition of biofilm | 57 | 77 | less toxicity compared to BF8 48 | after 8 h, E. coli RP437 growth reverts back normally | 
2 | CC1=C(Br)/C(=C/Br)OC1=O [BF8 48, reference compound] |  |  |  | marked attenuation of E. coli growth |  | 56
3 | CCCCOc1c(NC2CCCC2)c(=O)c1=O [butoxy-SCPA 46] |  |  |  | no inhibition of E. coli growth up to 300 μM |  | 42
